biological target: CDK2/Cyclin E kinase (Homo sapiens, UniProt P24941); test: CDK2/Cyclin E Flashplate Assay: 96-well format; format: biochemical; conditions: streptavidin-coated flashplate, biotinylated-Rb peptide substrate 10 μM, 33PγATP/ATP 1 μM, CDK2/Cyclin E 20 nM, 30 minute at 30° C., 1% DMSO
Method: Functional Measurements for Determination of IC50-Values
CDK2/Cyclin E Flashplate Assay: 96-Well Format
A 96-well streptavidin-coated flashplate is used to assay potency of compounds according formula (I) against CDK2/Cyclin E kinase. To carry out the assay, biotinylated-Rb peptide substrate (Biotin-[…]-OH) is solubilized at 1 mM in kinase buffer (Hepes 50 mM, NaCI 1 mM, MgCI2 5mM pH 7.5) as a stock solution conserved at −20° C. in aliquots of 110 μl. The day of the experiment, an aliquot of this solution is thawed and diluted to 14.3 μM in kinase buffer, containing 1 mM dithithreitol (DTT) added in the buffer extemporarily.
70 μl of this solution is added in each well of the flashplate in order to achieve a final concentration of 10 μM (100 μl reactionnal volume). Serial dilutions of inhibitors are prepared in DMSO from 10 mM stock solutions in order to achieve 1000 μM, 333.3 μM, 111.1 μM, 37.03 μM, 12.35 μM, 4.11 μM and 1.37 μM and all rediluted in kinase buffer+DTT in order to achieve 100 μM, 33.3 μM, 11.1 μM, 3.7 μM, 1.24 μM, 0.41 μM and 0.14 μM in DMSO 10% buffer (vol/vol). 10 μl of each of these solutions (or 10 μl of buffer+DTT for controls) are transferred to the testplate wells in order to achieve 10 μM, 3.33 μM, 1.11 μM, 0.37 μM, 0.12 μM, 0.04 μM and 0.01 μM as final concentrations, 1% DMSO (vol/vol). In each well, 10 μl of a solution of a mix of ^33PγATP/ATP are added in order to achieve 1 μM final concentration and a total of 1 μCi. The kinase reaction is initiated by addition of 10 μl of a solution at 200 nM of CDK2/Cyclin E in kinase buffer+DTT (or buffer+DTT for blanks) in order to achieve 20 nM final concentration. After addition of each reagent, the test-plate is shaken. The plates are incubated 30 minute at 30° C. with a shaking at 650 rpm. At the end of the incubation, the plates are washed 3 times with 300 μl of PBS (without calcium and magnesium) per well. The incorporation of ^33P to the peptide is measured by scintillation counting.

Question: Which IC50 does the source give for `CN(C)CCCOc1ccc2[nH]c(-c3cc(-c4ccncc4)n[nH]c3=O)cc2c1` [Example 30, 4-[5-(3-Dimethylamino-propoxy)-1H-indol-2-yl]-6-pyridin-4-yl-2H-pyridazin-3-one] here?
Answer: The IC50 was 35 nM.

Question: Which IC50 does the source give for `O=c1[nH]nc(-c2ccc(O)cc2)cc1-c1cc2ccccc2[nH]1` [Example 2, 6-(4-Hydroxy-phenyl)-4-(1H-indol-2-yl)-2H-pyridazin-3-one] here?
Answer: Its IC50 is 33 nM.

Question: How did the IC50 turn out when `O=c1[nH]nc(-c2ccncc2)cc1-c1cc2ccc(OCc3ccccc3)cc2[nH]1` [Example 23, 4-(6-Benzyloxy-1H-indol-2-yl)-6-pyridin-4-yl-2H-pyridazin-3-one] was run?
Answer: The IC50 was 48 nM.

Question: With `Cc1ccc2[nH]c(-c3cc(-c4ccncc4)n[nH]c3=O)cc2c1` [Example 14, 4-(5-Methyl-1H-indol-2-yl)-6-pyridin-4-yl-2H-pyridazin-3-one] as the compound, how does the IC50 read?
Answer: Its IC50 is 26 nM.

Question: How did the IC50 turn out when `CCN(CC)CCOc1ccc2cc(-c3cc(-c4ccncc4)n[nH]c3=O)[nH]c2c1` [Example 20, 4-[6-(2-Diethylamino-ethoxy)-1H-indol-2-yl]-6-pyridin-4-yl-2H-pyridazin-3-one] was run?
Answer: Its IC50 is 20 nM.
